Assay [1] relates to L1210. Briefly: Percent increase in life span was measured against L1210 murine leukemia cells at the dose of 5 mg/kg. The assay is classed as functional. As to conditions: Mus musculus.
Another assay has as its system HEp-2. Nature of the assay: Effective dose against H.Ep.-2 cells. The class given is functional. As to conditions: Homo sapiens, read-out: ED50 (the source's name).
Assay [2] in a line: The compound was compared with MTX with respect to cytotoxicity toward H.Ep.-2 cells. The assay is classed as functional.
A further assay deals with T1, Dihydrofolate reductase (Mus musculus, UniProt P00375).
T1 sequence (P00375 whole entry): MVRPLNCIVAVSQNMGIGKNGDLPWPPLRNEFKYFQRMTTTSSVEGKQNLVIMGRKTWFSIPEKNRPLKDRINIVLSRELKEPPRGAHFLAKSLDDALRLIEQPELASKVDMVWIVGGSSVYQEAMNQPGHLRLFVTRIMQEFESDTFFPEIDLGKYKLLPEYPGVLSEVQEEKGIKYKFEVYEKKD
Nature of the assay: Inhibition of Dihydrofolate reductase in mouse L1210 cells. The assay is classed as cell-based.

The subject of assay [3] is L1210. Briefly: Km value was measured as influx in L1210 cell membrane transport. The class given is functional, cell-based. As to conditions: Mus musculus.
For assay [4], the system named is L1210. Briefly: Ki value was measured as influx in L1210 cell membrane transport. The assay is classed as functional, cell-based, Mus musculus.
Assay [5] relates to L1210. Nature of the assay: Percent increase in life span was measured against L1210 murine leukemia cells at the dose of 25 mg/kg. The assay is classed as functional. As to conditions: Mus musculus.
Assay [6] has as its system L1210. Briefly: k value was measured as efflux in L1210 cell membrane transport. The class given is functional, Mus musculus.
Assay [7] concerns L1210. Nature of the assay: Percent increase in life span was measured against L1210 murine leukemia cells at the dose of 100 mg/kg. The assay is classed as functional. As to conditions: Mus musculus.
Assay [8] deals with L1210. Nature of the assay: Percent increase in life span was measured against L1210 murine leukemia cells at the dose of 180 mg/kg. The assay is classed as functional. As to conditions: Mus musculus.
For assay [9], the system named is L1210. Nature of the assay: Percent increase in life span was measured against L1210 murine leukemia cells at the dose of 200 mg/kg. The assay is classed as functional. As to conditions: Mus musculus.
Assay [10] relates to L1210. Briefly: Percent increase in life span was measured against L1210 murine leukemia cells at the dose of 50 mg/kg. The class given is functional. As to conditions: Mus musculus.
For assay [11], the system named is L1210. Nature of the assay: Percent increase in life span was measured against L1210 murine leukemia cells at the dose of 1.3 mg/kg. The assay is classed as functional. As to conditions: Mus musculus.
The test system of assay [12] is L1210. Briefly: Percent increase in life span was measured against L1210 murine leukemia cells at the dose of 2.5 mg/kg. As to conditions: Mus musculus. The class given is functional.

pEC50, pKi: −log10 of the molar value. A value given as a limit tells only on which side of the number the result lay.

As a reminder, the ILS is the gain in survival time of treated over control animals, in per cent. Read a high ILS as much gain in survival. Broadly, the pKi is −log10 of the Ki, conventionally taken in molar units. Usually Km stands for the substrate concentration at which the rate is half of its maximum. As for `CN(Cc1cnc2nc(N)nc(N)c2n1)c1ccc(C(=O)NC(CCC(=O)N[C@@H](CC(=O)O)C(=O)O)C(=O)O)cc1` (stereo partly drawn), in the assay with L1210 [1], the ILS at 5 mg/kg was found to be 65%. In addition, the pEC50 with HEp-2 was 6.48. In [2], the MTX ratio worked out at 140. On Dihydrofolate reductase, this molecule had a pKi of 11.55. The Km with L1210 [3] was > 300 µM.

On to `CN(Cc1cnc2nc(N)nc(N)c2n1)c1ccc(C(=O)NC(CCC(=O)O)C(=O)N[C@@H](CC(=O)O)C(=O)O)cc1` (stereo partly drawn), for which the pEC50 in the assay on HEp-2 was 6.28. Further, the pKi in the assay with L1210 [4] was 3.84; at Dihydrofolate reductase, 6.68. Besides, in [2], the MTX ratio was 217. Further, the ILS at 25 mg/kg in the assay with L1210 [5] stood at 47%.

Take `CN(Cc1cnc2nc(N)nc(N)c2n1)c1ccc(C(=O)NC(CCC(=O)O)C(N)=O)cc1` (stereo not drawn): the pEC50 with HEp-2 is 6.21. Also, the MTX ratio in assay [2] was determined as 250. On Dihydrofolate reductase, this molecule gave a pKi of 6.34. This molecule registered an increase in life span (ILS) at 25 mg/kg in the assay on L1210 [5] of 34%.

In the case of `CN(Cc1cnc2nc(N)nc(N)c2n1)c1ccc(C(=O)NC(CCC(=O)O)C(=O)N[C@@H](CCC(=O)O)C(=O)O)cc1` (stereo partly drawn), the pEC50 in the assay on HEp-2 is 6.74. Besides, the values for the pKi in the assay on L1210 [4] and at Dihydrofolate reductase were 4.21 and 6.77, respectively. In addition, in assay [2], the MTX ratio came out at 75. The same molecule had an increase in life span (ILS) at 25 mg/kg with L1210 [5] of 67%.

In the assay with L1210 [6], `CNC(=O)CCC(NC(=O)c1ccc(N(C)Cc2cnc3nc(N)nc(N)c3n2)cc1)C(=O)O` (stereo not drawn) showed a k of 0.21 min⁻¹. The molecule further had an ILS at 100 mg/kg with L1210 [7] of 58%. For the same molecule, the pEC50 in the assay on HEp-2 was 7.57. In [2], the MTX ratio is on record as 11. The molecule further gave a pKi at Dihydrofolate reductase of 11.57. For the same molecule, the Km with L1210 [3] turned out to be 27.6 µM.

`CN(Cc1cnc2nc(N)nc(N)c2n1)c1ccc(C(=O)NC(CCC(=O)NCC(=O)O)C(=O)O)cc1` (stereo not drawn) had a k with L1210 [6] of 2.1 min⁻¹. The molecule also displayed an increase in life span (ILS) at 5 mg/kg in the assay on L1210 [1] of 74%. Besides, in the assay on HEp-2, the pEC50 was 8.23. Besides, in [2], the MTX ratio amounted to 2.5. On Dihydrofolate reductase, this molecule showed a negative-log Ki (pKi) of 11.54. The Km in the assay with L1210 [3] was 3.9 µM.

For `CN(Cc1cnc2nc(N)nc(N)c2n1)c1ccc(C(=O)NC(CCC(N)=O)C(=O)O)cc1` (stereo not drawn), the k in the assay with L1210 [6] amounted to 0.15 min⁻¹. Moreover, in the assay on HEp-2, the pEC50 is 7.55. For the same molecule, the pKi with L1210 [4] was 5.08; on Dihydrofolate reductase, 11.57. Moreover, the MTX ratio in assay [2] is reported as 12. Also, the Km in the assay with L1210 [3] is 9.4 µM. The ILS at 180 mg/kg in the assay with L1210 [8] was found to be 58%.

In the assay with L1210 [6], `CCCCCNC(=O)CCC(NC(=O)c1ccc(N(C)Cc2cnc3nc(N)nc(N)c3n2)cc1)C(=O)O` (stereo not drawn) had a k of 0.26 min⁻¹. In the assay on HEp-2, the pEC50 is 7.26. The molecule also had an ILS at 200 mg/kg with L1210 [9] of 55%. Also, the pKi is 4.77 in the assay with L1210 [4] and 11.46 at Dihydrofolate reductase. For the same molecule, the MTX ratio in assay [2] amounted to 23. In the assay on L1210 [3], the Km is 16.9 µM.

As for `CN(Cc1cnc2nc(N)nc(N)c2n1)c1ccc(C(=O)NC(CCC(=O)NCc2ccccc2)C(=O)O)cc1` (stereo not drawn), the k in the assay with L1210 [6] is 0.19 min⁻¹. Besides, the ILS at 100 mg/kg in the assay on L1210 [7] was 33%. Further, the pEC50 in the assay with HEp-2 was 6.68. Besides, the pKi was 5.42 in the assay with L1210 [4] and 11.44 on Dihydrofolate reductase. Moreover, the MTX ratio in assay [2] turned out to be 88. Besides, the Km in the assay on L1210 [3] was 3.6 µM.

On to `CN(Cc1cnc2nc(N)nc(N)c2n1)c1ccc(C(=O)NC(CCC(=O)O)C(=O)NCC(=O)O)cc1` (stereo not drawn), for which the pEC50 in the assay on HEp-2 is 6.23. Also, the pKi in the assay with L1210 [4] is 4.18; at Dihydrofolate reductase, 6.68. Besides, the ILS at 50 mg/kg with L1210 [10] is 41%. For the same molecule, in [2], the MTX ratio is reported as 370.

In the assay on L1210 [6], `CN(C)C(=O)CCC(NC(=O)c1ccc(N(C)Cc2cnc3nc(N)nc(N)c3n2)cc1)C(=O)O` (stereo not drawn) came in with a k of 0.26 min⁻¹. Moreover, the pEC50 with HEp-2 is 7.23. For the same molecule, the ILS at 50 mg/kg in the assay with L1210 [10] was 44%. Besides, the MTX ratio in assay [2] was determined as 25. The pKi on Dihydrofolate reductase was 11.41. Moreover, the Michaelis constant (Km) in the assay with L1210 [3] worked out at 48.4 µM.

In the case of `CN(Cc1cnc2nc(N)nc(N)c2n1)c1ccc(C(=O)N[C@@H](CCC(=O)O)C(=O)O)cc1` [METHOTREXATE], the k in the assay on L1210 [6] was 0.23 min⁻¹. Further, the ILS at 1.3 mg/kg in the assay on L1210 [11] turned out to be 48%. The pKi in the assay on L1210 [4] was 5.46. The Km with L1210 [3] was 3.3 µM.

Turning to `CN(Cc1cnc2nc(N)nc(N)c2n1)c1ccc(C(=O)NC(CCC(=O)N[C@@H](CCC(=O)O)C(=O)O)C(=O)O)cc1` (stereo partly drawn), the k with L1210 [6] was 0.22 min⁻¹. Also, the pEC50 in the assay on HEp-2 was 8.28. For the same molecule, the MTX ratio in [2] was 2.2. The same molecule gave a pKi at Dihydrofolate reductase of 11.43. In the assay with L1210 [3], the Km is 49.3 µM. The molecule further displayed an ILS at 2.5 mg/kg in the assay on L1210 [12] of 65%.

The values above are taken from ChEMBL document CHEMBL1122010 (J Med Chem, 1982).
